Experimental data: ChEMBL document CHEMBL1144479, “Synthesis and antimicrobial studies on novel chloro-fluorine containing hydroxy pyrazolines” (2007)
Values after ≈ are worked out from the molar mass of the structure shown.

Tests used:
Aspergillus fumigatus = assay: Antifungal activity against Aspergillus fumigatus NCIM no. 902 after 3 to 4 days by serial plate dilution method; type: functional; conditions: for MIC: Aspergillus fumigatus
Aspergillus flavus = assay: Antifungal activity against Aspergillus flavus NCIM no. 524 after 3 to 4 days by serial plate dilution method; type: functional; conditions: for MIC: Aspergillus flavus
Candida albicans = assay: Antifungal activity against Candida albicans NCIM no. 300 after 3 to 4 days by serial plate dilution method; type: functional; conditions: for MIC: Candida albicans
Pseudomonas aeruginosa = assay: microbe, parasite or virus in culture; type: functional, ATCC 27853; conditions: for MIC: Pseudomonas aeruginosa, ATCC 27853, 24 h
Description: Antibacterial activity against Pseudomonas aeruginosa ATCC 27853 after 24 hrs by disc diffusion method

Escherichia coli = assay: microbe, parasite or virus in culture; type: functional, ATCC 25922; conditions: for MIC: Escherichia coli, ATCC 25922, 24 h
Description: Antibacterial activity against Escherichia coli ATCC 25922 after 24 hrs by disc diffusion method

Klebsiella pneumoniae = assay: Antibacterial activity against Klebsiella pneumoniae after 24 hrs by disc diffusion method; type: functional; conditions: for MIC: Klebsiella pneumoniae, 24 h
Streptococcus pyogenes = assay: Antibacterial activity against Streptococcus pyogenes after 24 hrs by disc diffusion method; type: functional; conditions: for MIC: Streptococcus pyogenes, 24 h
Talaromyces marneffei = assay: Antifungal activity against Penicillium marneffei after 3 to 4 days by serial plate dilution method; type: functional; conditions: for MIC: Talaromyces marneffei
Staphylococcus aureus = assay: microbe, parasite or virus in culture; type: functional, ATCC 25923; conditions: for MIC: Staphylococcus aureus, ATCC 25923, 24 h
Description: Antibacterial activity against Staphylococcus aureus ATCC 25923 after 24 hrs by disc diffusion method

Trichophyton benhamiae = assay: Antifungal activity against Trichophyton mentagrophytes after 3 to 4 days by serial plate dilution method; type: functional, Arthroderma benhamiae; conditions: for MIC: Trichophyton benhamiae

Structure (SMILES)	inhibition zone (IZ) (Aspergillus fumigatus)	MIC (Aspergillus fumigatus)	inhibition zone (IZ) (Aspergillus flavus)	MIC (Aspergillus flavus)	inhibition zone (IZ) (Candida albicans)	MIC (Candida albicans)	inhibition zone (IZ) (Pseudomonas aeruginosa)	MIC (Pseudomonas aeruginosa)	inhibition zone (IZ) (Escherichia coli)	MIC (Escherichia coli)	inhibition zone (IZ) (Klebsiella pneumoniae)	MIC (Klebsiella pneumoniae)	inhibition zone (IZ) (Streptococcus pyogenes)	MIC (Streptococcus pyogenes)	inhibition zone (IZ) (Talaromyces marneffei)	MIC (Talaromyces marneffei)	inhibition zone (IZ) (Staphylococcus aureus)	MIC (Staphylococcus aureus)	inhibition zone (IZ) (Trichophyton benhamiae)	MIC (Trichophyton benhamiae)
COc1ccc(C2=NN(C(=O)COc3ccc(Cl)cc3Cl)C(O)(c3cc(F)c(Cl)cc3Cl)C2)cc1 (configuration not stated)	19 mm	6.25 µg/mL (≈ 11.2 µM)	16 mm	12.5 µg/mL (≈ 22.4 µM)	12.5 mm	17 µg/mL (≈ 30.5 µM)	21 mm	6.25 µg/mL (≈ 11.2 µM)	16 mm	12.5 µg/mL (≈ 22.4 µM)	16 mm	12.5 µg/mL (≈ 22.4 µM)	19 mm	12.5 µg/mL (≈ 22.4 µM)	20 mm	6.25 µg/mL (≈ 11.2 µM)	16 mm	6.25 µg/mL (≈ 11.2 µM)	18 mm	6.25 µg/mL (≈ 11.2 µM)
COc1ccc(C2=NN(C(=O)COc3ccc(C)cc3)C(O)(c3cc(F)c(Cl)cc3Cl)C2)cc1OC (configuration not stated)		> 100 µg/mL	10 mm	25 µg/mL (≈ 46.9 µM)		> 100 µg/mL	23 mm	6.25 µg/mL (≈ 11.7 µM)	16 mm	12.5 µg/mL (≈ 23.4 µM)		> 100 µg/mL		> 100 µg/mL		> 100 µg/mL		> 100 µg/mL	23 mm	6.25 µg/mL (≈ 11.7 µM)
COc1ccc(C2=NN(C(=O)COc3ccc(Cl)cc3Cl)C(O)(c3cc(F)c(Cl)cc3Cl)C2)cc1OC (configuration not stated)	14 mm	12.5 µg/mL (≈ 21.2 µM)		> 100 µg/mL		> 100 µg/mL		> 100 µg/mL	9 mm	25 µg/mL (≈ 42.5 µM)		> 100 µg/mL		> 100 µg/mL	12 mm	25 µg/mL (≈ 42.5 µM)		> 100 µg/mL		> 100 µg/mL
Cc1ccc(OCC(=O)N2N=C(c3ccc(Cl)cc3)CC2(O)c2cc(F)c(Cl)cc2Cl)cc1 (configuration not stated)	19 mm	6.25 µg/mL (≈ 12.3 µM)	15 mm	12.5 µg/mL (≈ 24.6 µM)	19 mm	12.5 µg/mL (≈ 24.6 µM)	24 mm	6.25 µg/mL (≈ 12.3 µM)	17 mm	12.5 µg/mL (≈ 24.6 µM)	18 mm	6.25 µg/mL (≈ 12.3 µM)	18 mm	12.5 µg/mL (≈ 24.6 µM)	17 mm	6.25 µg/mL (≈ 12.3 µM)	19 mm	6.25 µg/mL (≈ 12.3 µM)	20 mm	6.25 µg/mL (≈ 12.3 µM)
COc1ccc(C2=NN(C(=O)COc3ccc(Cl)cc3)C(O)(c3cc(F)c(Cl)cc3Cl)C2)cc1 (configuration not stated)	21 mm	6.25 µg/mL (≈ 11.9 µM)	18 mm	12.5 µg/mL (≈ 23.9 µM)	19 mm	6.25 µg/mL (≈ 11.9 µM)	22 mm	6.25 µg/mL (≈ 11.9 µM)	18 mm	12.5 µg/mL (≈ 23.9 µM)	19 mm	6.25 µg/mL (≈ 11.9 µM)	18 mm	12.5 µg/mL (≈ 23.9 µM)	20 mm	6.25 µg/mL (≈ 11.9 µM)	19 mm	6.25 µg/mL (≈ 11.9 µM)	19 mm	6.25 µg/mL (≈ 11.9 µM)
Cc1ccc(OCC(=O)N2N=C(c3ccc(Cl)cc3Cl)CC2(O)c2cc(F)c(Cl)cc2Cl)cc1 (configuration not stated)	20 mm	6.25 µg/mL (≈ 11.5 µM)	16 mm	12.5 µg/mL (≈ 23.1 µM)	19 mm	6.25 µg/mL (≈ 11.5 µM)	24 mm	6.25 µg/mL (≈ 11.5 µM)	15 mm	12.5 µg/mL (≈ 23.1 µM)	18 mm	6.25 µg/mL (≈ 11.5 µM)	18 mm	12.5 µg/mL (≈ 23.1 µM)	18 mm	6.25 µg/mL (≈ 11.5 µM)	19 mm	6.25 µg/mL (≈ 11.5 µM)	18 mm	6.25 µg/mL (≈ 11.5 µM)
O=C(COc1ccc(Cl)cc1Cl)N1N=C(c2ccc(Cl)cc2Cl)CC1(O)c1cc(F)c(Cl)cc1Cl (configuration not stated)		> 100 µg/mL	12 mm	25 µg/mL (≈ 41.9 µM)		> 100 µg/mL	10 mm	25 µg/mL (≈ 41.9 µM)	17 mm	12.5 µg/mL (≈ 20.9 µM)		> 100 µg/mL		> 100 µg/mL		> 100 µg/mL		> 100 µg/mL	10 mm	25 µg/mL (≈ 41.9 µM)
O=C(COc1ccc(Cl)cc1)N1N=C(c2ccccc2)CC1(O)c1cc(F)c(Cl)cc1Cl (configuration not stated)	14 mm	12.5 µg/mL (≈ 25.3 µM)	9 mm	25 µg/mL (≈ 50.6 µM)		> 100 µg/mL		> 100 µg/mL		> 100 µg/mL	10 mm	25 µg/mL (≈ 50.6 µM)		> 100 µg/mL	10 mm	25 µg/mL (≈ 50.6 µM)	14 mm	12.5 µg/mL (≈ 25.3 µM)	7 mm	25 µg/mL (≈ 50.6 µM)
O=C(COc1ccc(Cl)cc1)N1N=C(c2ccc(Cl)cc2Cl)CC1(O)c1cc(F)c(Cl)cc1Cl (configuration not stated)		> 100 µg/mL		> 100 µg/mL		> 100 µg/mL		> 100 µg/mL		> 100 µg/mL		> 100 µg/mL		> 100 µg/mL	10 mm	25 µg/mL (≈ 44.4 µM)		> 100 µg/mL		
Cc1ccc(OCC(=O)N2N=C(c3ccccc3)CC2(O)c2cc(F)c(Cl)cc2Cl)cc1 (configuration not stated)	11 mm	12.5 µg/mL (≈ 26.4 µM)	11 mm	25 µg/mL (≈ 52.8 µM)	15 mm	12.5 µg/mL (≈ 26.4 µM)	18 mm	6.25 µg/mL (≈ 13.2 µM)	15 mm	12.5 µg/mL (≈ 26.4 µM)	18 mm	6.25 µg/mL (≈ 13.2 µM)	17 mm	12.5 µg/mL (≈ 26.4 µM)	12 mm	12.5 µg/mL (≈ 26.4 µM)	17 mm	6.25 µg/mL (≈ 13.2 µM)	10 mm	25 µg/mL (≈ 52.8 µM)
COc1ccc(C2=NN(C(=O)COc3ccc(Cl)cc3)C(O)(c3cc(F)c(Cl)cc3Cl)C2)cc1OC (configuration not stated)		> 100 µg/mL	9 mm	25 µg/mL (≈ 45.1 µM)	10 mm	25 µg/mL (≈ 45.1 µM)		> 100 µg/mL	8 mm	25 µg/mL (≈ 45.1 µM)		> 100 µg/mL	10 mm	25 µg/mL (≈ 45.1 µM)		> 100 µg/mL		> 100 µg/mL		> 100 µg/mL
O=C(COc1ccc(Cl)cc1)N1N=C(c2ccc(Cl)cc2)CC1(O)c1cc(F)c(Cl)cc1Cl (configuration not stated)	18 mm	6.25 µg/mL (≈ 11.8 µM)	16 mm	12.5 µg/mL (≈ 23.7 µM)	20 mm	12.5 µg/mL (≈ 23.7 µM)	21 mm	6.25 µg/mL (≈ 11.8 µM)	18 mm	12.5 µg/mL (≈ 23.7 µM)	19 mm	6.25 µg/mL (≈ 11.8 µM)	20 mm	12.5 µg/mL (≈ 23.7 µM)	18 mm	6.25 µg/mL (≈ 11.8 µM)	18 mm	6.25 µg/mL (≈ 11.8 µM)	19 mm	6.25 µg/mL (≈ 11.8 µM)
COc1ccc(C2=NN(C(=O)COc3ccc(C)cc3)C(O)(c3cc(F)c(Cl)cc3Cl)C2)cc1 (configuration not stated)	12 mm	12.5 µg/mL (≈ 24.8 µM)		> 100 µg/mL		> 100 µg/mL	10 mm	25 µg/mL (≈ 49.7 µM)		> 100 µg/mL		> 100 µg/mL		> 100 µg/mL	12 mm	12.5 µg/mL (≈ 24.8 µM)		> 100 µg/mL	10 mm	25 µg/mL (≈ 49.7 µM)
O=C(COc1ccc(Cl)cc1Cl)N1N=C(c2ccc(Cl)cc2)CC1(O)c1cc(F)c(Cl)cc1Cl (configuration not stated)		> 100 µg/mL	10 mm	25 µg/mL (≈ 44.4 µM)		> 100 µg/mL	23 mm	6.25 µg/mL (≈ 11.1 µM)	10 mm	25 µg/mL (≈ 44.4 µM)		6.25 µg/mL (≈ 11.1 µM)		> 100 µg/mL		> 100 µg/mL		> 100 µg/mL	12 mm	12.5 µg/mL (≈ 22.2 µM)
O=C(COc1ccc(Cl)cc1Cl)N1N=C(c2ccccc2)CC1(O)c1cc(F)c(Cl)cc1Cl (configuration not stated)	13 mm	12.5 µg/mL (≈ 23.7 µM)	15 mm	12.5 µg/mL (≈ 23.7 µM)	10 mm	25 µg/mL (≈ 47.3 µM)	19 mm	6.25 µg/mL (≈ 11.8 µM)	17 mm	12.5 µg/mL (≈ 23.7 µM)	16 mm	6.25 µg/mL (≈ 11.8 µM)	15 mm	12.5 µg/mL (≈ 23.7 µM)	15 mm	6.25 µg/mL (≈ 11.8 µM)	15 mm	6.25 µg/mL (≈ 11.8 µM)	11 mm	25 µg/mL (≈ 47.3 µM)
O=C(O)c1cn(C2CC2)c2cc(N3CCNCC3)c(F)cc2c1=O [CIPROFLOXACIN]							25 mm		18 mm	12.5 µg/mL (≈ 37.7 µM)	20 mm	6.25 µg/mL (≈ 18.9 µM)	20 mm	12.5 µg/mL (≈ 37.7 µM)			19 mm			
OC(Cn1cncn1)(Cn1cncn1)c1ccc(F)cc1F [FLUCONAZOLE]	22 mm	6.25 µg/mL (≈ 20.4 µM)	18 mm	12.5 µg/mL (≈ 40.8 µM)	20 mm	6.25 µg/mL (≈ 20.4 µM)									21 mm	6.25 µg/mL (≈ 20.4 µM)			20 mm	6.25 µg/mL (≈ 20.4 µM)
